Assay results reported in ChEMBL document CHEMBL4359817 (J Med Chem, 2019).
Values after ≈ are worked out from the molar mass of the structure shown.

How the values were obtained:
[1] = Lipophilicity, log D of the compound at pH 7.4; type: physicochemical; conditions: buffer
[2] = Intrinsic clearance in human hepatocytes assessed per million cells; type: ADME, cell-based, Hepatocyte; conditions: read-out: CLH
[3] = Intrinsic clearance in human microsomes; type: ADME, Microsome
[4] = Intrinsic clearance in rat hepatocytes assessed per million cells; type: ADME, cell-based, Hepatocyte; conditions: read-out: CLH
[5] = Clearance in iv or po dosed Han Wistar rat; type: ADME, organism-based; conditions: in vivo
[6] = Volume of distribution at steady state in iv or po dosed Han Wistar rat; type: ADME, organism-based; conditions: in vivo, read-out: Vdss
[7] = Oral bioavailability in Han Wistar rat; type: ADME, organism-based; conditions: in vivo
[8] = Thermodynamic aqueous solubility of the compound at pH 7.4; type: physicochemical; conditions: read-out: Therm_solubility
[9] = Thermodynamic aqueous solubility of the compound at pH 7.4 using amorphous form of sample; type: physicochemical; conditions: read-out: Therm_solubility
[10] = Clearance in dog at 1 mg/kg, po or 0.5 mg/kg, iv; type: ADME, organism-based, Canis lupus familiaris; conditions: in vivo
[11] = Oral bioavailability in dog at 1 mg/kg; type: ADME, organism-based, Canis lupus familiaris; conditions: in vivo
[12] = Time at which plasma concentration stays above in vitro fGI50 for antiproliferative activity against human NCI-H1703 cells in nude mouse at 100 mg/kg, po; type: organism-based; conditions: in vivo
[13] = Thermodynamic aqueous solubility of the compound at pH 7.4 using crystalline form of sample; type: physicochemical; conditions: read-out: Therm_solubility
[14] = Volume of distribution at steady state in dog at 1 mg/kg, po or 0.5 mg/kg, iv; type: ADME, organism-based, Canis lupus familiaris; conditions: in vivo, read-out: Vdss
[15] = Drug level in SCID mouse plasma xenografted with human NCI-H1703 cells at 100 mg/kg, po administered once daily via gavage for 21 days measured 4 hrs post-last dose; type: ADME, organism-based
[16] = Drug level in SCID mouse plasma xenografted with human NCI-H1703 cells at 100 mg/kg, po administered once daily via gavage for 21 days measured 24 hrs post-last dose; type: ADME, organism-based
[17] = Drug level in SCID mouse plasma xenografted with human NCI-H1703 cells assessed as free fraction at 100 mg/kg, po administered once daily via gavage for 21 days measured 4 hrs post-last dose; type: ADME, organism-based; conditions: in vivo
[18] = Drug level in SCID mouse plasma xenografted with human NCI-H1703 cells assessed as free fraction at 100 mg/kg, po administered once daily via gavage for 21 days measured 24 hrs post-last dose; type: ADME, organism-based; conditions: in vivo
[19] = Time at which plasma concentration stays above in vitro fGI50 for antiproliferative activity against human NCI-H1703 cells in SCID mouse at 100 mg/kg, po; type: organism-based; conditions: in vivo
[20] = Clearance in Han Wistar rat at 2 mg/kg, po or 0.5 mg/kg, iv; type: ADME, organism-based; conditions: in vivo
[21] = Volume of distribution at steady state in Han Wistar rat at 2 mg/kg, po or 0.5 mg/kg, iv; type: ADME, organism-based; conditions: in vivo, read-out: Vdss
[22] = Oral bioavailability in Han Wistar rat at 2 mg/kg; type: ADME, organism-based; conditions: in vivo
[23] = Time at which plasma concentration stays above in vitro GI50 for antiproliferative activity against human NCI-H1703 cells in SCID mouse at 100 mg/kg, po; type: organism-based; conditions: in vivo
[24] = Clearance in CD1 mouse at 100 mg/kg, po; type: ADME, organism-based; conditions: in vivo
[25] = Time at which plasma concentration stays above in vitro fGI50 for antiproliferative activity against human NCI-H1703 cells in SCID mouse at 100 mg/kg, po administered twice daily; type: organism-based; conditions: in vivo
[26] = Clearance in Han Wistar rat at 1 mg/kg, po or 0.5 mg/kg, iv; type: ADME, organism-based; conditions: in vivo
[27] = Volume of distribution at steady state in Han Wistar rat at 1 mg/kg, po or 0.5 mg/kg, iv; type: ADME, organism-based; conditions: in vivo, read-out: Vdss
[28] = Oral bioavailability in Han Wistar rat at 1 mg/kg; type: ADME, organism-based; conditions: in vivo

SMILES: O=C(Cc1ccccc1)Nc1nnc(CCSCCc2nnc(NC(=O)Cc3ccccc3)s2)s1
- logD ([1]; read-out: logD): > 4

SMILES: O=C(Cc1cccc(OC(F)(F)F)c1)Nc1ccc(CCCCc2nnc(NC(=O)Cc3ccccn3)s2)nn1
- logD [1]: 3.9
- hepatocyte CLint [2]: 8 µL/min/1e6 cells
- microsomal CLint [3]: 15 µL/min/mg
- hepatocyte CLint [4]: 30.2 µL/min/1e6 cells
- clearance [5]: 14 mL/min/kg
- Vd [6]: 3 L/kg
- bioavailability [7]: 32%

SMILES: O=C(Cc1ccccc1)Nc1nnc(CCCCCc2nnc(NC(=O)Cc3ccccc3)s2)s1
- solubility thermodynamic [8]: < 0.6 µM

SMILES: O=C(Cc1ccccc1)Nc1nnc(CCCCc2nnc(NC(=O)Cc3ccccc3)s2)s1
- solubility thermodynamic [8]: < 0.4 µM

SMILES: O=C(Cc1ccccc1)Nc1nnc(CCCc2nnc(NC(=O)Cc3ccccc3)s2)s1
- solubility thermodynamic [8]: < 0.6 µM
- logD ([1]; read-out: logD): 3.6

SMILES: O=C(Cc1ccccc1)Nc1nnc(N[C@@H]2CCN(c3nnc(NC(=O)Cc4ccccc4)s3)C2)s1
- solubility thermodynamic [8]: < 0.8 µM
- logD ([1]; read-out: logD): 3.8

SMILES: CO[C@H](C(=O)Nc1nnc(N[C@@H]2CCN(c3nccnn3)C2)s1)c1ccccc1
- logD ([1]; read-out: logD): 1.7
- hepatocyte CLint [2]: 3 µL/min/1e6 cells
- microsomal CLint [3]: 3 µL/min/mg
- hepatocyte CLint [4]: 4.1 µL/min/1e6 cells
- clearance [5]: 12 mL/min/kg
- Vd [6]: 0.6 L/kg
- bioavailability [7]: 41%
- solubility thermodynamic [9]: 516 µM (≈ 213 µg/mL)
- clearance [10]: 1 mL/min/kg
- bioavailability [11]: 90%
- Time [12]: 24 h

SMILES: CO[C@H](C(=O)Nc1nnc(N[C@@H]2CCN(c3cccnn3)C2)s1)c1ccccc1
- logD ([1]; read-out: logD): 1.9
- hepatocyte CLint [2]: < 1 µL/min/1e6 cells
- microsomal CLint [3]: < 3 µL/min/mg
- hepatocyte CLint [4]: 4.6 µL/min/1e6 cells
- clearance [5]: 35 mL/min/kg
- Vd [6]: 2.4 L/kg
- bioavailability [7]: 47%
- solubility thermodynamic [13]: 78 µM (≈ 32.1 µg/mL)
- clearance [10]: 4 mL/min/kg
- Vd [14]: 0.3 L/kg
- bioavailability [11]: 60%
- concentration at 4 h [15]: 3.57 µM
- concentration at 24 h [16]: 3.63 µM
- Cp(f) [17]: 0.582 µM
- Cp(f) [18]: 0.592 µM
- Time [19]: 24 h

SMILES: O=C(Cc1ccccc1)Nc1nnc(N[C@@H]2CCC[C@H]2Nc2nnc(NC(=O)Cc3ccccc3)s2)s1
- logD ([1]; read-out: logD): 4.3

SMILES: Nc1nnc(N2CC[C@@H](Nc3nnc(NC(=O)Cc4ccccc4)s3)C2)s1
- solubility thermodynamic [8]: 95 µM (≈ 38.2 µg/mL)
- logD ([1]; read-out: logD): 1.9

SMILES: CC(=O)N1CCCCC1CC(=O)Nc1nnc(N2CC[C@@H](Nc3nnc(NC(=O)Cc4ccccc4)s3)C2)s1 (some centres undefined)
- solubility thermodynamic [8]: 20 µM (≈ 11.4 µg/mL)
- logD ([1]; read-out: logD): 2.7

SMILES: O=C(Cc1ccccc1)Nc1nnc(N[C@@H]2CCN(c3nccnn3)C2)s1
- solubility thermodynamic [8]: 94 µM (≈ 36 µg/mL)
- logD ([1]; read-out: logD): 2.06
- microsomal CLint [3]: < 3 µL/min/mg
- hepatocyte CLint [4]: 5 µL/min/1e6 cells
- clearance [20]: 54 mL/min/kg
- Vd [21]: 2 L/kg
- bioavailability [22]: 83%

SMILES: Nc1nnc(N[C@@H]2CCN(c3ccc(NC(=O)Cc4ccccc4)nn3)C2)s1
- solubility thermodynamic [8]: 20 µM (≈ 7.93 µg/mL)
- logD ([1]; read-out: logD): 0.85

SMILES: CN(CCN(C)c1nnc(NC(=O)Cc2ccccc2)s1)c1nnc(NC(=O)Cc2ccccc2)s1
- solubility thermodynamic [8]: < 1 µM
- logD ([1]; read-out: logD): 3.5

SMILES: O=C(Cc1ccccc1)Nc1nnc(N[C@@H]2CCN(c3nnc(NC(=O)CC4CCOCC4)s3)C2)s1
- solubility thermodynamic [8]: 10 µM (≈ 5.29 µg/mL)
- logD ([1]; read-out: logD): 3.2

SMILES: Nc1nnc(N[C@@H]2CCN(c3nnc(NC(=O)Cc4ccccc4)s3)C2)s1
- solubility thermodynamic [8]: 5 µM (≈ 2.01 µg/mL)
- logD ([1]; read-out: logD): 1.8

SMILES: O=C(Cc1ccccc1)Nc1nnc(NCCNc2nnc(NC(=O)Cc3ccccc3)s2)s1
- solubility thermodynamic [8]: < 3 µM

SMILES: O=C(Cc1ccccc1)Nc1nnc(N[C@@H]2CCN(c3cccnn3)C2)s1
- solubility thermodynamic [8]: 14 µM (≈ 5.34 µg/mL)
- logD ([1]; read-out: logD): 2.2
- hepatocyte CLint [2]: < 1 µL/min/1e6 cells
- microsomal CLint [3]: 3 µL/min/mg
- hepatocyte CLint [4]: 2 µL/min/1e6 cells
- clearance [5]: 50 mL/min/kg
- Vd [6]: 1.6 L/kg
- bioavailability [7]: 2%
- Time [23]: 10 h
- CL/F [24]: 101 mL/min/kg

SMILES: CC(=O)Nc1nnc(N2CC[C@@H](Nc3nnc(NC(=O)Cc4ccccc4)s3)C2)s1
- solubility thermodynamic [8]: 3 µM (≈ 1.33 µg/mL)
- logD ([1]; read-out: logD): 2.5

SMILES: O=C(Cc1ccccc1)Nc1nnc(NC[C@H]2CCN(c3nnc(NC(=O)Cc4ccccc4)s3)C2)s1
- solubility thermodynamic [8]: < 0.8 µM
- logD ([1]; read-out: logD): > 4.2

SMILES: O=C(NCc1ccccc1)c1nnc(N[C@@H]2CCN(c3nccnn3)C2)s1
- solubility thermodynamic [8]: > 228 µM
- logD ([1]; read-out: logD): 2.2
- microsomal CLint [3]: 3 µL/min/mg

SMILES: CN1CCC(CC(=O)Nc2nnc(N3CC[C@@H](Nc4nnc(NC(=O)Cc5ccccc5)s4)C3)s2)CC1
- solubility thermodynamic [8]: 150 µM (≈ 81.3 µg/mL)
- logD ([1]; read-out: logD): 1.3

SMILES: O=C(Cc1ccccc1)Nc1nnc(N[C@@H]2CCN(c3nncs3)C2)s1
- solubility thermodynamic [8]: 130 µM (≈ 50.4 µg/mL)
- logD ([1]; read-out: logD): 2.1

SMILES: C[C@H](C(=O)Nc1nnc(N[C@@H]2CCN(c3cccnn3)C2)s1)c1ccccc1
- logD ([1]; read-out: logD): 2.6
- microsomal CLint [3]: < 3 µL/min/mg
- hepatocyte CLint [4]: 8.7 µL/min/1e6 cells
- clearance [5]: 55 mL/min/kg
- Vd [6]: 1.9 L/kg
- bioavailability [7]: 0%
- solubility thermodynamic [9]: 329 µM (≈ 130 µg/mL)
- Time [19]: 15 h
- Time [25]: 24 h

SMILES: O=C(NCc1ccccc1)c1nnc(N[C@@H]2CCN(c3cccnn3)C2)s1
- solubility thermodynamic [8]: > 559 µM
- logD ([1]; read-out: logD): 2.24
- microsomal CLint [3]: < 3 µL/min/mg
- hepatocyte CLint [4]: 31 µL/min/1e6 cells
- clearance [26]: 100 mL/min/kg
- Vd [27]: 2.7 L/kg
- bioavailability [28]: 12%
